Measured values published in patent publication US9175011B2, “Morpholino substituted urea or carbamate derivatives as MTOR inhibitors” (CELLZOME LIMITED, priority 2011, dated 2015).

Legend:
[1] = target: T1, PI3K delta (PI3Kd) (Homo sapiens, UniProt O00329); test: kinobeads assay, PI3K delta; format: binding; settings: Jurkat cell lysate, read-out: Inhibition values (IC50) PI3Kd
T1 construct: Jurkat cells were homogenized in a Potter S homogenizer in lysis buffer; endogenous in cells; host or cells: Jurkat, clone E6-1 (ATCC TIB-152) lysate
Method: (§1) The compounds of the present invention as described were tested in the mTOR kinobeads assay as described below. Briefly, test compounds (at various concentrations) and the affinity matrix (1:1 mixture of beads with immobilized phenylthiazole ligand 1 and beads with immobilized phenylmorpholin-chromen ligand; WO 2009/098021) were added to cell lysate aliquots and allowed to bind to the proteins in the lysate sample. After the incubation time the beads with captured proteins were separated from the lysate. Bound proteins were then eluted and the presence of mTOR, PI3K alpha (PI3Kα), PI3K beta (PI3Kb), PI3K gamma (PI3Kg), PI3K delta (PI3Kd) and DNA-dependent protein kinase (DNA-PK) was detected and quantified using a specific antibody in a dot blot procedure and the Odyssey infrared detection system. Dose response curves for individual kinases were generated and IC50 values calculated. Kinobeads assays for PI3 kinases (WO-A 2008/015013) and for kinase selectivity profiling (WO 2009/098021) have been previously described.
(§2) The affinity matrix (beads with immobilized phenylmorpholin-chromen ligand) was washed three times with 15 ml of 1×DP buffer containing 0.2% NP40 (IGEPAL® CA-630, Sigma, #13021) and then resuspended in 5.5 ml of 1×DP buffer containing 0.2% NP40 (10% beads slurry).
(§3) 5×DP buffer: 250 mM Tris-HCl pH 7.4, 25% Glycerol, 7.5 mM MgCl2, 750 mM NaCl, 5 mM Na3VO4, filter the 5×-lysis buffer through 0.22 μm filter and store in aliquots at −80° C. The 5×DP buffer is diluted to 1×DP buffer containing 1 mM DTT and 25 mM NaF.
(§4) Stock solutions of test compounds were prepared in DMSO. In a 96 well plate 30 μl solution of diluted test compounds at 5 mM in DMSO were prepared. Starting with this solution a 1:3 dilution series (9 steps) was prepared. For control experiments (no test compound) a buffer containing 2% DMSO was used. Compound PI-103 served as a positive control (Calbiochem catalogue number 528100).
(§5) Jurkat cells (ATCC catalogue number TIB-152 Jurkat, clone E6-1) were grown in 1 liter Spinner flasks (Integra Biosciences, #182101) in suspension in RPMI 1640 medium (Invitrogen, #21875-034) supplemented with 10% Fetal Bovine Serum (Invitrogen) at a density between 0.15×10^6 and 1.2×10^6 cells/ml. Cells were harvested by centrifugation, washed once with 1×PBS buffer (Invitrogen, #14190-094) and cell pellets were frozen in liquid nitrogen and subsequently stored at −80° C.
(§6) Jurkat cells were homogenized in a Potter S homogenizer in lysis buffer: 50 mM Tris-HCl, 0.8% NP40, 5% glycerol, 150 mM NaCl, 1.5 mM MgCl2, 25 mM NaF, 1 mM sodium vanadate, 1 mM DTT, pH 7.5. One complete EDTA-free tablet (protease inhibitor cocktail, Roche Diagnostics, 1873580) per 25 ml buffer was added. The material was dounced 10 times using a mechanized POTTER S, transferred to 50 ml falcon tubes, incubated for 30 minutes on ice and spun down for 10 min at 20,000 g at 4° C. (10,000 rpm in Sorvall SLA600, precooled). The supernatant was transferred to an ultracentrifuge (UZ)-polycarbonate tube (Beckmann, 355654) and spun for 1 hour at 100.000 g at 4° C. (33.500 rpm in Ti50.2, precooled). The supernatant was transferred again to a fresh 50 ml falcon tube, the protein concentration was determined by a Bradford assay (BioRad) and samples containing 50 mg of protein per aliquot were prepared. The samples were immediately used for experiments or frozen in liquid nitrogen and stored frozen at −80° C.
(§7) Jurkat cell lysate (approximately 50 mg protein per plate) was thawed in a water bath at room temperature and then kept on ice. To the thawed cell lysate 1×DP 0.8% NP40 buffer containing protease inhibitors (1 tablet for 25 ml buffer; EDTA-free protease inhibitor cocktail; Roche Diagnostics 1873580) was added in order to reach a final protein concentration of 5 mg/ml total protein. The diluted cell lysate was stored on ice. […]

[2] = target: T2, PI3K beta (PI3Kb) (Homo sapiens, UniProt P42338); test: kinobeads assay, PI3K beta; format: binding; settings: Jurkat cell lysate, read-out: Inhibition values (IC50) PI3Kb
T2 construct: Jurkat cells were homogenized in a Potter S homogenizer in lysis buffer; endogenous in cells; host or cells: Jurkat, clone E6-1 (ATCC TIB-152) lysate
Method: as §1, §2, §3, §4, §5, §6, §7

[3] = target: T3, mTOR (Homo sapiens, UniProt P42345); test: mTOR kinobeads assay (Jurkat cell lysate, dot blot detection); format: binding; settings: read-out: Inhibition values (IC50) mTor
T3 construct: Jurkat cells were homogenized in a Potter S homogenizer in lysis buffer; endogenous in cells; host or cells: Jurkat, clone E6-1 (ATCC TIB-152) lysate
Method: as §1, §2, §3, §4, §5, §6, §7

[4] = target: T4, DNA-dependent protein kinase (DNA-PK) (Homo sapiens, UniProt P78527); test: kinobeads assay, DNA-PK; format: binding; settings: Jurkat cell lysate, read-out: Inhibition values (IC50) DNA-PK
T4 construct: Jurkat cells were homogenized in a Potter S homogenizer in lysis buffer; endogenous in cells; host or cells: Jurkat, clone E6-1 (ATCC TIB-152) lysate
Method: as §1, §2, §3, §4, §5, §6, §7

[5] = target: T5, PI3K gamma (PI3Kg) (Homo sapiens, UniProt P48736); test: kinobeads assay, PI3K gamma; format: binding; settings: Jurkat cell lysate, read-out: Inhibition values (IC50) PI3Kg
T5 construct: Jurkat cells were homogenized in a Potter S homogenizer in lysis buffer; endogenous in cells; host or cells: Jurkat, clone E6-1 (ATCC TIB-152) lysate
Method: as §1, §2, §3, §4, §5, §6, §7

[6] = target: T6, PI3K alpha (PI3Kα) (Homo sapiens, UniProt P42336); test: kinobeads assay, PI3K alpha; format: binding; settings: Jurkat cell lysate, read-out: Inhibition values (IC50) PI3Ka
T6 construct: Jurkat cells were homogenized in a Potter S homogenizer in lysis buffer; endogenous in cells; host or cells: Jurkat, clone E6-1 (ATCC TIB-152) lysate
Method: as §1, §2, §3, §4, §5, §6, §7

[7] = tested on: S6RP serine-240/244 phosphorylation; test: In vitro phospho-S6 cellular assay (HEK293T/17); format: cell-based; settings: Homo sapiens; HEK293T/17 cells, 2 hours, pS6RP Ser240/244; read-out: Inhibition values (IC50) pS6
Description: Activation of mTOR signaling results in phosphorylation of several downstream targets. In cells, mTOR exists in two different protein complexes. The mTOR Complex-1 (mTORC1) phosphorylates and activates S6 Kinase 1 (S6K1) and S6 Kinase 2 (S6K2) (also known as p70S6K) which then phosphorylate S6 Ribosomal Protein (S6RP) (also known as RPS6)3. S6RP is phosphorylated on serine 235, senile 236, serine 240 and serine 244 by both pS6K1 and pS6K2. The mTOR Complex-2 (mTORC2) phosphorylates AKT on serine 473 which activates the AKT signaling pathway.
The assay measures a test compound's inhibition of S6RP serine-240/244 phosphorylation and inhibition of Akt serine-473 phosphorylation in human embryonic kidney derived HEK293T/17 cells (ATCC CRL-11268).
The HEK293T/17 cell line is maintained in DMEM media (Invitrogen catalogue number 41965-039) supplemented with 10% FCS at 37° C. in a 5% CO2 humidified incubator. Cells are seeded in 96-well plates at 40,000 cells/well (pS6RP S240/244 assay) or 80,000 cells/well (pAkt 5473 assay) in 90 μl growth media (DMEM, 2% FCS). Plates are incubated for 1 hour in a humidified incubator to allow the cells to adhere. Cells are treated with 8 concentrations of test compounds or DMSO alone for controls (final DMSO concentration 0.1%) and incubated at 37° C. for 2 hours. Then 20 μl of 5× concentrated lysis buffer (750 mM NaCl, 100 mM Tris pH7.4, 5 mM ADTA, 5 mM EGTA, 5% Triton X-100) is added, plates are sealed and incubated for 15 minutes at 4° C. with gentle shaking After cell lysis, 25 μl cell lysate is transferred to a MesoScale plate coated with an antibody to pS6RP Ser240/244 (MesoScale Discovery K150DGD-3) or an antibody to pAkt Ser 473 (MesoScale Discovery K151DGD-3). Plates have been blocked before by incubation with 150 μl MesoScale Discovery Blocking Solution-A for 1 hour at room temperature followed by washing with 150 μl 1×Tris wash buffer per well. After the transfer of the cell lysate to the MSD plate, the pS6RP (or pAkt) protein is captured on the coated antibody by incubation at room temperature for 1 hour with gentle shaking. After the capture step the plate is washed three times with 150 μl of 1× Tris wash buffer per well. Then 25 μl detection antibody conjugated with a Sulfo-Tag is added and incubated for 1 hour at room temperature with gentle shaking. Subsequently the antibody solution is removed and the plate is washed 3 times with 150 μl 1×Tris wash buffer per well and 150 μl Read buffer is added. The plates are analysed on a MSD 2400 Plate Reader (MesoScale Discovery). Data analysis is performed using nonlinear regression for a sigmoidal dose-response with a variable slope.

T6 sequence (P42336 whole entry): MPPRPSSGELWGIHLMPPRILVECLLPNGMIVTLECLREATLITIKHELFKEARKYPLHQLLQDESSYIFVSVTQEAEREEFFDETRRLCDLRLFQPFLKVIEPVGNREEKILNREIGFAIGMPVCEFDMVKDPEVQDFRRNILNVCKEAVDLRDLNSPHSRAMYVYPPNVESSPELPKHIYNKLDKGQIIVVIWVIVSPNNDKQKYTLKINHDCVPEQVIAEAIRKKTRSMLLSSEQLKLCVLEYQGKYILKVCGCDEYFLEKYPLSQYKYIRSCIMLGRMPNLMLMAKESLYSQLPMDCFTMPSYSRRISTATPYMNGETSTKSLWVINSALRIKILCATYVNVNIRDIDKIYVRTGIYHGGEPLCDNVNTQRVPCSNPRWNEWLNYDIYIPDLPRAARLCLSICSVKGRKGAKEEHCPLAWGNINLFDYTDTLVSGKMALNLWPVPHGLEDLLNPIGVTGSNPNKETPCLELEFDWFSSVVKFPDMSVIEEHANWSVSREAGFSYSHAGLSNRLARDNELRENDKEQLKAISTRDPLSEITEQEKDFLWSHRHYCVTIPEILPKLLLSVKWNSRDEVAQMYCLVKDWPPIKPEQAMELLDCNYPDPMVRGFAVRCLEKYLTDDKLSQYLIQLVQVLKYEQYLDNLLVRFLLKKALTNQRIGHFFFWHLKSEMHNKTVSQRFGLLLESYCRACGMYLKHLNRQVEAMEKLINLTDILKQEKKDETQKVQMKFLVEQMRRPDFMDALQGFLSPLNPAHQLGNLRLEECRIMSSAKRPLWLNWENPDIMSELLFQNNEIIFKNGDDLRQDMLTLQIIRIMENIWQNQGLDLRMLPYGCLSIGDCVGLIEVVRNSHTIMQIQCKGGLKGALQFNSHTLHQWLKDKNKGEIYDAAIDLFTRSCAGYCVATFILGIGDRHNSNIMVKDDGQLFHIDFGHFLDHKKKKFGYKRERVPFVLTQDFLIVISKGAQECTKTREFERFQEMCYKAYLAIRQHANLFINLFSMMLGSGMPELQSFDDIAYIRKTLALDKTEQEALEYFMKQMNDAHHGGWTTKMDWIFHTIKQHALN
T6 sequence (P27986 whole entry partner): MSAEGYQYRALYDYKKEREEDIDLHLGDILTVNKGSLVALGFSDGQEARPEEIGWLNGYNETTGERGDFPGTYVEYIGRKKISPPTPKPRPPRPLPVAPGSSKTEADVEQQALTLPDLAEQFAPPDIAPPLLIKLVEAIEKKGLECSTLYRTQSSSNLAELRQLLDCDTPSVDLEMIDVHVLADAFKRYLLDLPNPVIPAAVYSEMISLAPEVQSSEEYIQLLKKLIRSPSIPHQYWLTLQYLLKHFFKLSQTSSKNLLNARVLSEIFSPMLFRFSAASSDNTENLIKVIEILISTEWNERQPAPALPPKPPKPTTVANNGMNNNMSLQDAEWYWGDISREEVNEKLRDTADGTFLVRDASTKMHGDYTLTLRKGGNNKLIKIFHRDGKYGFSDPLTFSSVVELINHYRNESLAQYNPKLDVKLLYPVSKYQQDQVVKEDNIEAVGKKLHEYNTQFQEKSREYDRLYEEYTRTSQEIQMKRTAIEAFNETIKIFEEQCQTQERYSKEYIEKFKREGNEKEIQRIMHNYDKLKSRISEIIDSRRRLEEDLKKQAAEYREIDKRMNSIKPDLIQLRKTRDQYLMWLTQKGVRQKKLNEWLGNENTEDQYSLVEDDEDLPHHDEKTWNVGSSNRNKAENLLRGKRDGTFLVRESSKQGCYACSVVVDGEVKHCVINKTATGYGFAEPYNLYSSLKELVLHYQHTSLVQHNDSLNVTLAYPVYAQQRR
T2 sequence (P42338 whole entry): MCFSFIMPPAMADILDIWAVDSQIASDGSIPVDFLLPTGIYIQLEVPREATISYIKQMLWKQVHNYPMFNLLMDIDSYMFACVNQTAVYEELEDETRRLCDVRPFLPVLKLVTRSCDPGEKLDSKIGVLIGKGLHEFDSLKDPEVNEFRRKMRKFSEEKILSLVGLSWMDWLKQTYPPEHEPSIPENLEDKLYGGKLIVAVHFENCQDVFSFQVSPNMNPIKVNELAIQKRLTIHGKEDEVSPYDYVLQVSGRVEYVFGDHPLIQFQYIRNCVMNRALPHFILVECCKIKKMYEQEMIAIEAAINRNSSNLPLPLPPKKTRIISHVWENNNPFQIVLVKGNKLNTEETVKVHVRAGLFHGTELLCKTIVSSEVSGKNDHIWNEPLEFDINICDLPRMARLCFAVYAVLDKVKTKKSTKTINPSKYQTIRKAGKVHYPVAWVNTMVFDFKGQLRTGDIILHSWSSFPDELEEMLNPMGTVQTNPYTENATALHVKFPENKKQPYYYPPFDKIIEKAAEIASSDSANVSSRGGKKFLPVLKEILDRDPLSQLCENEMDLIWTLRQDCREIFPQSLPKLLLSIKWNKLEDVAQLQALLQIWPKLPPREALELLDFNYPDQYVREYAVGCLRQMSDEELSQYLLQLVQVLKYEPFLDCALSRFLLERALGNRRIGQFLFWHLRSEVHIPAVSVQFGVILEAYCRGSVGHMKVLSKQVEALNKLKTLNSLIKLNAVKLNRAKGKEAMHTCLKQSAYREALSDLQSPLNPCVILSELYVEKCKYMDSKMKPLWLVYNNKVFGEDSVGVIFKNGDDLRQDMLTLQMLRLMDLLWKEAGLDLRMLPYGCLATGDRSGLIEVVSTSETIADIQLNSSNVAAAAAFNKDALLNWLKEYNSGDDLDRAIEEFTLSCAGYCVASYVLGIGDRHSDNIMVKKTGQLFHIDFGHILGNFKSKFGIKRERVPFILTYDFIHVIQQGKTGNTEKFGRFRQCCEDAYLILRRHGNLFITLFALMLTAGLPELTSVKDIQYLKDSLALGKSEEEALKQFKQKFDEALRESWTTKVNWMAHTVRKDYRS
T2 sequence (P27986 whole entry partner): as the sequence (P27986 whole entry partner) above
T5 sequence (P48736 whole entry): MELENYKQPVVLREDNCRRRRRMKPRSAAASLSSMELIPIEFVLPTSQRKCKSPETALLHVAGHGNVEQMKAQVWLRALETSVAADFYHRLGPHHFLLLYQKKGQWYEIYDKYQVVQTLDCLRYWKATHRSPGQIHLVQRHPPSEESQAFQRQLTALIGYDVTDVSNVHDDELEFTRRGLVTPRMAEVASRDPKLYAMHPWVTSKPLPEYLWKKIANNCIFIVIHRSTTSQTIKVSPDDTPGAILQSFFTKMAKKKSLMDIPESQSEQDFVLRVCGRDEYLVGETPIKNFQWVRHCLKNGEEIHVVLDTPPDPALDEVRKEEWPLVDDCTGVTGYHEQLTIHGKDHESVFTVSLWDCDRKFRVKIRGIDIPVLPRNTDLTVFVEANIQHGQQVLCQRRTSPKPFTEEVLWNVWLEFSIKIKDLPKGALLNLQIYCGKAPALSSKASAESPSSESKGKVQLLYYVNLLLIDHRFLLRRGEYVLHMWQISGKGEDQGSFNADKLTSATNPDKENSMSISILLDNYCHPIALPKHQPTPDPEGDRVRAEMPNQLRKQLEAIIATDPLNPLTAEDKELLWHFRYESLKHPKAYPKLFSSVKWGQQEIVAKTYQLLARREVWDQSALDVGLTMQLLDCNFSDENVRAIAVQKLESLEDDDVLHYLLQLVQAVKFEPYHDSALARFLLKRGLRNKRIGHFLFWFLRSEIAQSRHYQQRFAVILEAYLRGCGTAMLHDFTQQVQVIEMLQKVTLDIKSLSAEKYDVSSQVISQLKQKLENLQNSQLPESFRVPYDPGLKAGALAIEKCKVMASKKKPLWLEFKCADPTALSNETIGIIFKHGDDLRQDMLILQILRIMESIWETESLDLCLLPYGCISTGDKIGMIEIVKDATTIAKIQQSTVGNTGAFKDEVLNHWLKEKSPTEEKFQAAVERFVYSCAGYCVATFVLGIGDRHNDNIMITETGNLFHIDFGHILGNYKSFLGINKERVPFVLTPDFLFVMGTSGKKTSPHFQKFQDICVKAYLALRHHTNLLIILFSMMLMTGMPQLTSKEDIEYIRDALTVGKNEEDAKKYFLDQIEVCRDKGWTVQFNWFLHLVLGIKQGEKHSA
T1 sequence (O00329 whole entry): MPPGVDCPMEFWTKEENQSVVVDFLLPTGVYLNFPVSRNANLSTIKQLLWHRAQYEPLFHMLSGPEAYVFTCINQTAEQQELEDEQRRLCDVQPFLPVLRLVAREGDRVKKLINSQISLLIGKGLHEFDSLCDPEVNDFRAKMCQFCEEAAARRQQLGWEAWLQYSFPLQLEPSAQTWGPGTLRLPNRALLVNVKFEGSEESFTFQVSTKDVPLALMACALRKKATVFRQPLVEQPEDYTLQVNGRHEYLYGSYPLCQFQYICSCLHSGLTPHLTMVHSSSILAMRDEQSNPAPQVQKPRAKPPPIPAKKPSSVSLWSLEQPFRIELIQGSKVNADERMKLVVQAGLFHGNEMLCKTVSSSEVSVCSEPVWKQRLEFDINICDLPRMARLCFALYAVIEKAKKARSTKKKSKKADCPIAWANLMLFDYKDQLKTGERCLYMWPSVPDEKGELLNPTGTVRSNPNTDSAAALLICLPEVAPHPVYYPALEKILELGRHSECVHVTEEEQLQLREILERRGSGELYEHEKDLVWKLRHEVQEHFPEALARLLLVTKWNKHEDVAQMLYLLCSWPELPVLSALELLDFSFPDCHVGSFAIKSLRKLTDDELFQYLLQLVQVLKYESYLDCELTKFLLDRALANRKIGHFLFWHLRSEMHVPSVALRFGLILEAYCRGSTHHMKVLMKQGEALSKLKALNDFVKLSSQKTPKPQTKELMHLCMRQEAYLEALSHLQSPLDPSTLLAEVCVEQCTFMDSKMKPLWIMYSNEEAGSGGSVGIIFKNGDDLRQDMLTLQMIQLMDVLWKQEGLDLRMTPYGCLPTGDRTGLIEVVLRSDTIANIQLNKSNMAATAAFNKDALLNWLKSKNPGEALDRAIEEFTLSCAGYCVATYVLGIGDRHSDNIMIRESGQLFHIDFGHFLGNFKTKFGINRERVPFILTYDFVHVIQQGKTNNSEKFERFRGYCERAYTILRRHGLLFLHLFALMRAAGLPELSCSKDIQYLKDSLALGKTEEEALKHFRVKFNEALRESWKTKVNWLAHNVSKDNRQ
T1 sequence (P27986 whole entry partner): as the sequence (P27986 whole entry partner) above

IC50 [1]	IC50 [2]	IC50 [3]	IC50 [4]	IC50 [5]	IC50 [6]	IC50 [7]	SMILES
> 10 µM	> 10 µM	0.1 to 1 µM	> 10 µM	> 10 µM	> 10 µM	< 0.1 µM	C[C@H]1COCCN1c1nc(-c2ccc(NC(=O)Nc3cccnc3)cc2)nc(-c2ccccc2S(C)(=O)=O)n1 [Example 3, (S)-1-(4-(4-(3-methylmorpholino)-6-(2-(methylsulfonyl)phenyl)-1,3,5-triazin-2-yl)phenyl)-3-(pyridin-3-yl)urea]
> 10 µM	> 10 µM	0.1 to 1 µM	> 10 µM	> 10 µM	> 10 µM	0.1 to 1 µM	C[C@H]1COCCN1c1nc(-c2ccc(NC(=O)NC3COC3)cc2)nc(-c2ccccc2S(C)(=O)=O)n1 [Example 9, (S)-1-(4-(4-(3-methylmorpholin)-6-(2-(methylsulfonyl)phenyl)-1,3,5-triazin-2-yl)phenyl)-3-(oxetan-3-yl)urea]
> 10 µM	> 10 µM	< 0.1 µM	> 10 µM	> 10 µM	> 10 µM	< 0.1 µM	CS(=O)(=O)c1ccccc1-c1nc(-c2ccc(NC(=O)NC3CC3)cc2)nc(N2CC3CCC(C2)O3)n1 [Example 11, 1-(4-(4-(8-oxa-3-azabicyclo[3.2.1]octan-3-yl)-6-(2-(methylsulfonyl)phenyl)-1,3,5-triazin-2-yl)phenyl)-3-cyclopropylurea]
> 10 µM	> 10 µM	0.1 to 1 µM	> 10 µM	> 10 µM	> 10 µM	0.1 to 1 µM	CS(=O)(=O)c1ccccc1-c1nc(-c2ccc(NC(=O)NC3CC3)cc2)nc(N2CCOCC2)n1 [Example 12, 1-cyclopropyl-3-(4-(4-(2-(methylsulfonyl)phenyl)-6-morpholino-1,3,5-triazin-2-yl)phenyl)urea]
> 10 µM	> 10 µM	0.1 to 1 µM	> 10 µM	> 10 µM	> 10 µM	< 0.1 µM	C[C@@H]1COCCN1c1nc(-c2ccc(NC(=O)NC3CC3)cc2)nc(-c2ccccc2S(C)(=O)=O)n1 [Example 13, (R)-1-cyclopropyl-3-(4-(4-(3-methylmorpholino)-6-(2-(methylsulfonyl)phenyl)-1,3,5-triazin-2-yl)phenyl)urea]
> 10 µM	> 10 µM	0.1 to 1 µM	> 10 µM	> 10 µM	> 10 µM	< 0.1 µM	CC(C)NC(=O)Nc1ccc(-c2nc(-c3ccccc3S(C)(=O)=O)nc(N3CCOC[C@@H]3C)n2)cc1 [Example 15, (S)-1-isopropyl-3-(4-(4-(3-methylmorpholino)-6-(2-(methylsulfonyl)phenyl)-1,3,5-triazin-2-yl)phenyl)urea]
> 10 µM	> 10 µM	1 to 10 µM	> 10 µM	> 10 µM	> 10 µM	–	C[C@H]1COCCN1c1nc(-c2ccc(NC(=O)NCCC(F)(F)F)cc2)nc(-c2ccccc2S(C)(=O)=O)n1 [Example 31, (S)-1-(4-(4-(3-methylmorpholino)-6-(2-(methylsulfonyl)phenyl)-1,3,5-triazin-2-yl)phenyl)-3-(3,3,3-trifluoropropyl)urea]
> 10 µM	> 10 µM	> 10 µM	> 10 µM	> 10 µM	> 10 µM	–	C[C@H]1COCCN1c1nc(-c2ccc(NC(=O)NCCC(O)C(F)(F)F)cc2)nc(-c2ccccc2S(C)(=O)=O)n1 (stereo partly drawn) [Example 38, 1-(4-(4-((S)-3-methylmorpholino)-6-(2-(methylsulfonyl)phenyl)-1,3,5-triazin-2-yl)phenyl)-3-(4,4,4-trifluoro-3-hydroxybutyl)urea]
